Results reported in paper PMC6311682, “Design, Synthesis, and Biological Evaluation of 2-Nitroimidazopyrazin-one/-es with Antitubercular and Antiparasitic Activity” (Journal of Medicinal Chemistry, 2018).
pIC50: −log10 of the molar value. Converted amounts (≈) assume the structure as drawn. “And” between values parts separate entries of the source, which are not always exact repeats. Equal entries are not always repeated. Where two headings read alike, the source gives them in different places.

Key:
M. tuberculosis = details: cited from earlier work
HEK293 cells = system: HEK293 cells; parameters: method as in Jarrad et al. 2; details: ATCC CRL-1573; ref Jarrad et al. 2; read-out: cytotoxicity CC50 HEK 293; cited from earlier work
M. tuberculosis (H37Rv) [1] = experiment: M. tuberculosis H37Rv resazurin reduction microplate MIC assay, hypoxic conditions (0.1% oxygen); format: cell-based, Mycobacterium tuberculosis
HepG2 cells = system: HepG2 cells; parameters: method as in Jarrad et al. 2; details: ATCC HB-8065; ref Jarrad et al. 2; read-out: cytotoxicity CC50 HepG2; cited from earlier work
[2] = system: C. difficile (630, ATCC BAA-1382); experiment: Broth microdilution MIC assay, C. difficile; format: cell-based, Clostridium difficile; details: 630 ATCC BAA-1382, median MIC; for MIC: Clostridioides difficile, ATCCBAA1382, read-out: antibacterial MIC C. difficile
[3] = Mammalian cytotoxicity assay (resazurin), HEK293; details: human, HEK293 cells
[4] = Mammalian cytotoxicity assay (resazurin), HepG2; details: human, HepG2 cells
M. tuberculosis (H37Rv) [5] = experiment: M. tuberculosis H37Rv resazurin reduction microplate MIC assay, normoxic conditions; format: cell-based; details: Mycobacterium tuberculosis, normoxia, read-out: antibacterial MIC M. tuberculosis normoxia
[6] = Broth microdilution MIC assay, ESKAPE pathogens; format: cell-based; details: S. aureus, E. coli, K. pneumoniae, A. baumannii, P. aeruginosa; read-out: antibacterial MIC ESKAPE
G. lamblia (WB line) = experiment: ATP-bioluminescence cell growth and survival assay, G. lamblia trophozoites; format: cell-based; details: Giardia duodenalis; for pIC50: read-out: antiparasitic IC50 G. lamblia
[7] = system: E. histolytica (HM1:IMSS); experiment: ATP-bioluminescence cell growth and survival assay, E. histolytica trophozoites; format: cell-based; details: Entamoeba histolytica; for pIC50: read-out: antiparasitic IC50 E. histolytica; for IC50: read-out: antiparasitic pIC50 ± SE E. histolytica (converted)
[8] = system: L. donovani MHOM/IN/80/DD8 (ATCC50212); experiment: L. donovani DD8 intracellular (THP-1) amastigote assay; format: cell-based; details: Leishmania donovani; for pIC50: read-out: antiparasitic IC50 L. donovani; for IC50: read-out: antiparasitic pIC50 ± SE L. donovani (converted)
[9] = system: T. b. brucei (strain 427, BS427); experiment: 384-well resazurin viability assay, T. b. brucei bloodstream parasites; format: cell-based; details: Trypanosoma brucei, BS427, n = 2; for pIC50: read-out: antiparasitic IC50 T. b. brucei
[10] = system: C. albicans (ATCC 90028) and C. neoformans (H99, ATCC 208821); experiment: Broth microdilution MIC assay, fungi; format: cell-based; details: for MIC: Candida albicans, read-out: antifungal MIC
[11] = system: ESKAPE pathogens S. aureus (ATCC 43300), E. coli (ATCC 25922), K. pneumoniae (ATCC 700603), A. baumannii (ATCC 19606), P. aeruginosa (ATCC 27853); experiment: Broth microdilution MIC assay, ESKAPE pathogens; format: cell-based
[12] = Kinetic solubility determination by LC-UV; details: room temperature, 1% DMSO
[13] = Plasma protein binding, ultrafiltration method; format: in vitro ADME; details: human plasma, % bound, read-out: PPB (%) (converted)
[14] = Caco-2 monolayer bidirectional permeability assay; details: human, Caco-2, pH 7.4
in vitro = details: human
[15] = PBS, pH 7.4, Solubility µM (PBS), PBS pH 7.4, 24 h
[16] = water, Solubility µM (H2O), 24 h

For `O=[N+]([O-])c1cn2c(n1)OC[C@H](OCc1ccc(OC(F)(F)F)cc1)C2` [(R)-PA-824 (8), (R)-PA-824], the “activity against M. tuberculosis” value (M. tuberculosis) is given as “inactive”.

In the case of `O=C(NCc1ccc(OC(F)(F)F)cc1)c1ncc([N+](=O)[O-])[nH]1` [16c], the CC50 (HEK293 cells) is given as 93 µM, the “M. tuberculosis hypoxia % I” value (M. tuberculosis (H37Rv) [1]; at 32 μg/mL) is given as 75% and 60–75% and the CC50 (HepG2 cells) is given as 104 µM.

`O=c1c2nccn2ccn1Cc1ccc(F)cc1` [20c, 7-(4-Fluorobenzyl)imidazo[1,2-a]pyrazin-8(7H)-one] showed an MIC [2] greater than 64 µg/mL, a CC50 at 24 h [3] greater than 100 µM and a CC50 at 24 h [4] greater than 100 µM. It also gave an MIC (M. tuberculosis (H37Rv) [5]) greater than 32 µg/mL, an MIC [6] greater than 32 µg/mL and a pIC50 (G. lamblia (WB line)) of less than 4.30. It also gave an IC50 (G. lamblia (WB line); read-out: antiparasitic pIC50 ± SE G. lamblia (converted)) greater than 50.1 µM, a pIC50 [7] of less than 4.30 and an IC50 [7] greater than 50.1 µM. The pIC50 [8] was less than 4.10, the IC50 [8] was greater than 79.4 µM and the MIC (M. tuberculosis (H37Rv) [1]; Mycobacterium tuberculosis, H37Rv, hypoxia (0.1% oxygen), read-out: antibacterial MIC M. tuberculosis hypoxia) was greater than 32 µg/mL. The pIC50 [9] was less than 4.40, the IC50 ([9]; read-out: antiparasitic pIC50 ± SE T. b. brucei (converted)) was greater than 39.8 µM and the MIC [10] was greater than 32 µg/mL.

With `CC(=O)OCCn1c(C)cn2cc([N+](=O)[O-])nc2c1=O` [25b, 2-(6-Methyl-2-nitro-8-oxoimidazo[1,2-a]pyrazin-7(8H)-yl)ethyl Acetate] the “antibacterial MIC C. difficile” value [2] was greater than 64 µg/mL, the MIC [2] was greater than 64 µg/mL and the CC50 at 24 h [3] was greater than 100 µM. For the same compound, the CC50 at 24 h [4] was greater than 100 µM, the “antibacterial MIC ESKAPE” value [11] was greater than 32 µg/mL and the MIC [6] was greater than 32 µg/mL. It also gave a pIC50 [8] of less than 4.10, an IC50 [8] greater than 79.4 µM and a pIC50 [9] greater than 6.00. For the same compound, the “antifungal MIC” value [10] was greater than 32 µg/mL, the MIC [10] was greater than 32 µg/mL and the solubility at 24 h [12, 15] was greater than 200 µM. The solubility at 24 h [12, 16] was greater than 200 µM.

In the case of `O=c1c2nc([N+](=O)[O-])cn2ccn1Cc1cccc(C(F)(F)F)c1` [17h, 2-Nitro-7-(3-(trifluoromethyl)benzyl)imidazo[1,2-a]pyrazin-8(7H)-one], the “antibacterial MIC ESKAPE” value [11] was greater than 32 µg/mL, the MIC [6] was greater than 32 µg/mL and the pIC50 [7] was less than 4.30. It also gave an IC50 [7] greater than 50.1 µM, a pIC50 [8] of less than 4.40 and an IC50 [8] greater than 39.8 µM. For the same compound, the “M. tuberculosis hypoxia % I” value (M. tuberculosis (H37Rv) [1]; @ 0.06–16 μg/mL) was 70–90% I @ 0.06–16 μg/mL.

With `O=c1c2nc([N+](=O)[O-])cn2ccn1Cc1ccc(OC(F)(F)F)cc1` [17c, 2-Nitro-7-(4-(trifluoromethoxy)benzyl)imidazo[1,2-a]pyrazin-8(7H)-one] the “antibacterial MIC ESKAPE” value [11] was greater than 32 µg/mL, the MIC [6] was greater than 32 µg/mL and the fraction unbound at 0.5 h, 5 µM [13] was 0.02. The pIC50 [8] was less than 4.10, the IC50 [8] was greater than 79.4 µM and the “antibacterial MIC M. tuberculosis hypoxia” value (M. tuberculosis (H37Rv) [1]; H37Rv, hypoxia (0.1% oxygen)) was 1.0 to 4.0 µg/mL. For the same compound, the solubility at 24 h [12, 15] was less than 5 µM, the solubility at 24 h [12, 16] was less than 5 µM and the Papp A→B at 2 h, 2 µM [14] was 25 ×10⁻⁶ cm/s. It also gave a Papp A→B at 2 h, 2 μM [14] greater than 20 ×10⁻⁶ cm/s and a Papp B→A at 2 h, 2 µM [14] of 22 ×10⁻⁶ cm/s.

With `O=c1c2nc([N+](=O)[O-])cn2ccn1CCc1ccc(OC(F)(F)F)cc1` [17m, 2-Nitro-7-(4-(trifluoromethoxy)phenethyl)imidazo[1,2-a]pyrazin-8(7H)-one] the MIC [2] was 64 µg/mL (≈ 174 µM), the MIC (M. tuberculosis (H37Rv) [5]) was 8 µg/mL (≈ 21.7 µM) and the “antibacterial MIC ESKAPE” value [11] was greater than 32 µg/mL. It also gave an MIC [6] greater than 32 µg/mL, a pIC50 (G. lamblia (WB line)) of 5.49 to 5.80 and a pIC50 [7] of less than 4.30. The IC50 [7] was greater than 50.1 µM, the pIC50 [8] was less than 4.10 and the IC50 [8] was greater than 79.4 µM. It also gave a solubility at 24 h [12, 15] of less than 5 µM and a solubility at 24 h [12, 16] of less than 5 µM.

In the case of `O=C(NO)c1nc([N+](=O)[O-])cn1Cc1ccc(OC(F)(F)F)cc1` [28j], the CC50 (HEK293 cells) is given as 36 µM, the “M. tuberculosis hypoxia % I” value (M. tuberculosis (H37Rv) [1]; at 32 μg/mL) is given as 60% and 60–75% and the CC50 (HepG2 cells) is given as greater than 100 µM.

Compound `CC(Cc1ccc(O)cc1)NCC(O)c1cc(O)cc(O)c1` (stereo not drawn) [fenoterol] has a Papp A→B at 2 h, 2 µM (in vitro; Caco-2, pH 7.4) of 0.27 ×10⁻⁶ cm/s and a recovery at 2 h, 2 µM (in vitro; Caco-2, pH 7.4, mean recovery (%) A to B) of 92%.
